{
  "source": "patent US12303497B2",
  "about": "“Anti-androgens for the treatment of metastatic castration-sensitive prostate cancer” (priority 2019, dated 2025)",
  "test_system": "patients with metastatic castration-sensitive prostate cancer (mCSPC)",
  "key": {"[1]": {"details": "within 30 days of last dose, n = 524"}},
  "data": [
    {"smiles": "CNC(=O)c1ccc(N2C(=S)N(c3cnc(C#N)c(C(F)(F)F)c3)C(=O)C23CCC3)cc1F", "note": "[Apalutamide, 4-[7-(6-cyano-5-trifluoromethylpyridin-3-yl)-8-oxo-6-thioxo-5,7-diazaspiro[3.4]oct-5-yl]-2-fluoro-N-methylbenzamide]", "values": [
      {"measurement": "AE leading to dose interruption: Syncope", "setting": "Grade ≥3", "value": "1 (0.2) no. (%)"},
      {"measurement": "AE leading to dose interruption: Thrombocytopenia", "setting": "Grade ≥3", "value": "0 no. (%)"},
      {"measurement": "AE leading to dose interruption: Tongue ulceration", "setting": "Grade ≥3", "value": "0 no. (%)"},
      {"measurement": "AE leading to dose interruption: Urethral stenosis", "setting": "Grade ≥3", "value": "0 no. (%)"},
      {"measurement": "AE leading to dose interruption: Urinary incontinence", "setting": "Grade ≥3", "value": "0 no. (%)"},
      {"measurement": "AE leading to dose interruption: Urinary retention", "setting": "Grade ≥3", "value": "2 (0.4) no. (%)"},
      {"measurement": "AE leading to dose interruption: Urinary tract obstruction", "setting": "Grade ≥3", "value": "1 (0.2) no. (%)"},
      {"measurement": "AE leading to dose interruption: Vertigo", "setting": "Grade ≥3", "value": "1 (0.2) no. (%)"},
      {"measurement": "AE leading to dose interruption: Vomiting", "setting": "Grade ≥3", "value": "0 no. (%)"},
      {"measurement": "AE leading to dose interruption: Weight increased", "setting": "Grade ≥3", "value": "0 no. (%)"},
      {"measurement": "AE leading to dose reduction: Aspartate aminotransferase or alanine aminotransferase increased", "setting": "Grade ≥3", "value": "0 no. (%)"},
      {"measurement": "AE leading to dose reduction: Asthenia", "setting": "Grade ≥3", "value": "0 no. (%)"},
      {"measurement": "AE leading to dose reduction: Cognitive disorder", "setting": "Grade ≥3", "value": "1 (0.2) no. (%)"},
      {"measurement": "AE leading to dose reduction: Dehydration", "setting": "Grade ≥3", "value": "0 no. (%)"},
      {"measurement": "AE leading to dose reduction: Fatigue", "setting": "Grade ≥3", "value": "2 (0.4) no. (%)"},
      {"measurement": "AE leading to dose reduction: General physical health deterioration", "setting": "Grade ≥3", "value": "1 (0.2) no. (%)"},
      {"measurement": "AE leading to dose reduction: Headache", "setting": "Grade ≥3", "value": "0 no. (%)"},
      {"measurement": "AE leading to dose reduction: Hot flush", "setting": "Grade ≥3", "value": "0 no. (%)"},
      {"measurement": "AE leading to dose reduction: Hypertension", "setting": "Grade ≥3", "value": "1 (0.2) no. (%)"},
      {"measurement": "AE leading to dose reduction: Lethargy", "setting": "Grade ≥3", "value": "0 no. (%)"},
      {"measurement": "AE leading to dose reduction: Neutropenia", "setting": "Grade ≥3", "value": "2 (0.4) no. (%)"},
      {"measurement": "AE leading to dose reduction: Pain", "setting": "Grade ≥3", "value": "0 no. (%)"},
      {"measurement": "AE leading to dose reduction: Performance status decreased", "setting": "Grade ≥3", "value": "0 no. (%)"},
      {"measurement": "AE leading to dose reduction: Rash (grouped term)", "setting": "Grade ≥3", "value": "11 (2.1) no. (%)"},
      {"measurement": "AE leading to dose reduction: Vertigo", "setting": "Grade ≥3", "value": "1 (0.2) no. (%)"},
      {"measurement": "AE leading to dose reduction: Weight decreased", "setting": "Grade ≥3", "value": "1 (0.2) no. (%)"},
      {"measurement": "AE of special interest: Fall", "setting": "Grade ≥3", "value": "4 (0.8) no. (%)"},
      {"measurement": "AE of special interest: Fracture (grouped term)", "setting": "Grade ≥3", "value": "7 (1.3) no. (%)"},
      {"measurement": "AE of special interest: Hypothyroidism (grouped term)", "setting": "Grade ≥3", "value": "0 no. (%)"},
      {"measurement": "AE of special interest: Rash (grouped term)", "setting": "Grade ≥3", "value": "33 (6.3) no. (%)"},
      {"measurement": "AE of special interest: Seizure (grouped term)", "setting": "Grade ≥3", "value": "1 (0.2) no. (%)"},
      {"measurement": "Patients with treatment-emergent adverse events leading to discontinuation", "setting": "Grade ≥3", "value": "26 (5.0) no. (%)"},
      {"measurement": "Patients with treatment-emergent adverse events leading to dose reduction", "setting": "Grade ≥3", "value": "19 (3.6) no. (%)"},
      {"measurement": "Patients with treatment-emergent events leading to dose interruption", "setting": "Grade ≥3", "value": "68 (13.0) no. (%)"},
      {"measurement": "TEAE: Anemia", "setting": "Grade ≥3", "value": "9 (1.7) no. (%)"},
      {"measurement": "TEAE: Arthralgia", "setting": "Grade ≥3", "value": "2 (0.4) no. (%)"},
      {"measurement": "TEAE: Asthenia", "setting": "Grade ≥3", "value": "10 (1.9) no. (%)"},
      {"measurement": "TEAE: Back pain", "setting": "Grade ≥3", "value": "12 (2.3) no. (%)"},
      {"measurement": "TEAE: Blood alkaline phosphatase increased", "setting": "Grade ≥3", "value": "2 (0.4) no. (%)"},
      {"measurement": "TEAE: Bone pain", "setting": "Grade ≥3", "value": "6 (1.1) no. (%)"},
      {"measurement": "TEAE: Constipation", "setting": "Grade ≥3", "value": "0 no. (%)"},
      {"measurement": "TEAE: Fatigue", "setting": "Grade ≥3", "value": "8 (1.5) no. (%)"},
      {"measurement": "TEAE: Hot flush", "setting": "Grade ≥3", "value": "0 no. (%)"},
      {"measurement": "TEAE: Hypertension", "setting": "Grade ≥3", "value": "44 (8.4) no. (%)"},
      {"measurement": "TEAE: Pain in extremity", "setting": "Grade ≥3", "value": "3 (0.6) no. (%)"},
      {"measurement": "TEAE: Pruritus", "setting": "Grade ≥3", "value": "1 (0.2) no. (%)"},
      {"measurement": "TEAE: Rash generalized", "setting": "Grade ≥3", "value": "14 (2.7) no. (%)"},
      {"measurement": "TEAE: Urinary retention", "setting": "Grade ≥3", "value": "0 no. (%)"},
      {"measurement": "TEAE: Weight increased", "setting": "Grade ≥3", "value": "6 (1.1) no. (%)"},
      {"measurement": "Patients who died as the result of an adverse event", "setting": "Ten patients", "value": 1.9, "unit": "%"},
      {"measurement": "Hypothyroidism reported", "setting": "all events were grade 1 or 2", "value": 6.5, "unit": "%"},
      {"measurement": "AE leading to discontinuation: Suicide", "setting": "in vivo", "value": "0 no. (%)"},
      {"measurement": "AE leading to dose interruption: Acute kidney injury", "setting": "in vivo", "value": "1 (0.2) no. (%)"},
      {"measurement": "AE leading to dose interruption: Acute respiratory failure", "setting": "in vivo", "value": "1 (0.2) no. (%)"},
      {"measurement": "AE leading to dose interruption: Allergy to chemicals", "setting": "in vivo", "value": "1 (0.2) no. (%)"},
      {"measurement": "AE leading to dose interruption: Anemia", "setting": "in vivo", "value": "0 no. (%)"},
      {"measurement": "AE leading to dose interruption: Angina unstable", "setting": "in vivo", "value": "0 no. (%)"},
      {"measurement": "Frequency of grade 3 and 4 events", "setting": "in vivo", "value": 42.2, "unit": "%"},
      {"measurement": "Frequency of serious adverse events", "setting": "in vivo", "value": 19.8, "unit": "%"},
      {"measurement": "Grade 3 rashes", "setting": "in vivo", "value": 6.3, "unit": "%"},
      {"measurement": "Ischemic events led to death", "setting": "in vivo", "value": "two"},
      {"measurement": "Ischemic heart disease reported", "setting": "in vivo", "value": 4.4, "unit": "%"},
      {"measurement": "Median time to onset of rash", "setting": "in vivo", "value": 81, "unit": "days"},
      {"measurement": "Most common event considered related to apalutamide: rash of any type", "setting": "in vivo", "value": 6.3, "unit": "%"},
      {"measurement": "Rash of any grade (treatment-emergent skin rash)", "setting": "in vivo", "value": 27.1, "unit": "%"},
      {"measurement": "Stevens-Johnson syndrome or toxic epidermal necrolysis", "setting": "in vivo", "value": "No Stevens-Johnson syndrome or toxic epidermal necrolysis was reported"},
      {"measurement": "All deaths within 30 days of last dose", "setting": "investigator reported, n = 524", "value": "18 (3.4) no. (%)"},
      {"measurement": "AE leading to death: Acute coronary syndrome", "setting": "n = 524", "value": "0 no. (%)"},
      {"measurement": "AE leading to death: Acute kidney injury", "setting": "n = 524", "value": "2 (0.4) no. (%)"},
      {"measurement": "AE leading to death: Acute myocardial infarction", "setting": "n = 524", "value": "1 (0.2) no. (%)"},
      {"measurement": "AE leading to death: Cardiac failure", "setting": "n = 524", "value": "0 no. (%)"},
      {"measurement": "AE leading to death: Cardio-respiratory arrest", "setting": "n = 524", "value": "1 (0.2) no. (%)"},
      {"measurement": "AE leading to death: Cardiogenic shock", "setting": "n = 524", "value": "1 (0.2) no. (%)"},
      {"measurement": "AE leading to death: Cerebrovascular accident", "setting": "n = 524", "value": "1 (0.2) no. (%)"},
      {"measurement": "AE leading to death: Death", "setting": "n = 524", "value": "0 no. (%)"},
      {"measurement": "AE leading to death: Hypothermia", "setting": "n = 524", "value": "0 no. (%)"},
      {"measurement": "AE leading to death: Intracranial hemorrhage", "setting": "n = 524", "value": "0 no. (%)"},
      {"measurement": "AE leading to death: Myocardial infarction", "setting": "n = 524", "value": "1 (0.2) no. (%)"},
      {"measurement": "AE leading to death: Pulmonary embolism", "setting": "n = 524", "value": "0 no. (%)"},
      {"measurement": "AE leading to death: Respiratory failure", "setting": "n = 524", "value": "1 (0.2) no. (%)"},
      {"measurement": "AE leading to death: Sepsis", "setting": "n = 524", "value": "0 no. (%)"},
      {"measurement": "AE leading to death: Subdural hemorrhage", "setting": "n = 524", "value": "0 no. (%)"},
      {"measurement": "AE leading to death: Sudden cardiac death", "setting": "n = 524", "value": "1 (0.2) no. (%)"},
      {"measurement": "AE leading to death: Sudden death", "setting": "n = 524", "value": "0 no. (%)"},
      {"measurement": "AE leading to death: Suicide", "setting": "n = 524", "value": "0 no. (%)"},
      {"measurement": "AE leading to death: Urosepsis", "setting": "n = 524", "value": "0 no. (%)"},
      {"measurement": "AE leading to death: Vascular rupture", "setting": "n = 524", "value": "0 no. (%)"},
      {"measurement": "Adverse event leading to death", "setting": "n = 524", "value": "10 (1.9) no. (%)"},
      {"measurement": "Any adverse event", "setting": "n = 524", "value": "507 (96.8) no. (%)"},
      {"measurement": "Any adverse event leading to treatment discontinuation", "setting": "n = 524", "value": "42 (8.0) no. (%)"},
      {"measurement": "Any serious adverse event", "setting": "n = 524", "value": "104 (19.8) no. (%)"},
      {"measurement": "Grade 3 or 4 adverse event", "setting": "n = 524", "value": "221 (42.2) no. (%)"},
      {"measurement": "Patients with adverse events as the primary reason for discontinuation", "setting": "n = 525", "value": "39 (7.4) no. (%)"},
      {"measurement": "Patients with adverse events leading to discontinuation", "setting": "n = 525 (Table 5)", "value": "42 (8.0) no. (%)"},
      {"measurement": "Death due to adverse event", "setting": "[1]", "value": "10 (1.9) no. (%)"},
      {"measurement": "Death due to prostate cancer", "setting": "[1]", "value": "8 (1.5) no. (%)"}
    ]}
  ]
}
